Tested on: four of the six Bcl-2 family proteins
Assay: Multiplex flow cytometry competition dose-response against F-Bim
Type: binding
Conditions: constant 50 nM F-Bim, dose-response series (Fig. 2b)

## CN(C)CC[C@H](CSc1ccccc1)Nc1ccc(S(=O)(=O)NC(=O)c2ccc(N3CCN(Cc4ccccc4-c4ccc(Cl)cc4)CC3)cc2)cc1[N+](=O)[O-] [ABT-737]
  ability to block F-Bim binding: block F-Bim binding to four of them at relatively low concentrations
